In US11718813B2, “2-in-1 sanitizing and rinse aid compositions employing amine based surfactants in machine warewashing” (ECOLAB USA INC., priority 2020, dated 2023):

Assays:
Staphylococcus aureus = experiment: AOAC Official Method 960.09 Germicidal and Detergent Sanitizing Action of Disinfectants; assay type: cell-based; settings: pH 5, about 12.5 to about 400 ppm tested, 5-log reached only at the highest concentration tested
Excerpt: (§1) As used herein, the term “sanitizer” refers to an agent that reduces the number of bacterial contaminants to safe levels as judged by public health requirements. […] These reductions can be evaluated using a procedure set out in Germicidal and Detergent Sanitizing Action of Disinfectants, Official Methods of Analysis of the Association of Official Analytical Chemists, paragraph 960.09 and applicable sections, 15th Edition, 1990 (EPA Guideline 91-2). According to this reference a sanitizer should provide a 99.999% reduction (5-log order reduction) within 30 seconds at room temperature, 25±2° C., against several test organisms. […] Differentiation of antimicrobial “-cidal” or “-static” activity, the definitions which describe the degree of efficacy, and the official laboratory protocols for measuring this efficacy are considerations for understanding the relevance of antimicrobial agents and compositions. Antimicrobial compositions can affect two kinds of microbial cell damage. The first is a lethal, irreversible action resulting in complete microbial cell destruction or incapacitation. The second type of cell damage is reversible, such that if the organism is rendered free of the agent, it can again multiply. The former is termed microbiocidal and the later, microbiostatic. A sanitizer and a disinfectant are, by definition, agents which provide antimicrobial or microbiocidal activity.
(§2) In order to determine the efficacy of the amine-based surfactants in various environments as determined by different pH values, the surfactants were tested for antimicrobial efficacy on E. coli and Staphylococcus aureus.

E. coli = experiment: as above; assay type: cell-based
Excerpt: as §1, §2

[1] = Surface tension / critical micelle concentration on a tensiometer; assay type: physicochemical; settings: 0.001 to 1 wt % in DI water, FIG. 1
Method: All samples were run on a tensiometer with the concentration of the amine surfactants ranging from 0.001 to 1 wt % in up to 50 mL DI water.

Glewwe foam test = assay type: physicochemical; settings: foam height; 120 F; pH 8.5
Method: The ability of a defoaming agent to control the foaming profile of the surfactant was also tested.
The foam height never surpassed the maximum height of 3 inches allowed by the Glewwe test for a passing test and generally had no foam or a low froth present. Even at a 3:1 ratio of surfactant to defoamer, the fatty alcohol alkoxylate was sufficient to keep the foam low for machine ware washing. At lower ratios, such as 2:1 or 1:1 surfactant to defoamer, the level of foam was even better maintained at a low to nonexistent amount.

In the case of CCCCCCCCCCCCN(CCCN)CCCN [bis(3-aminopropyl)dodecylamine], the log reduction (Staphylococcus aureus) is reported as less than 5 log, the log reduction (E. coli; pH 5, about 12.5 to about 400 ppm tested, 5-log reached only at the highest concentration tested) is reported as less than 5 log and the “concentration to achieve a 5-log reduction” value (E. coli; pH 7) is reported as 50 ppm. The surface tension ([1]; pH 5) was “about 35 mN/m”, the surface tension ([1]; pH 7) was “about 35 mN/m” and the surface tension ([1]; pH 9) was “about 32 mN/m”. The “Surfactant Foam Profile 0 min” value (Glewwe foam test) was 9, the “Surfactant Foam Profile 15 sec” value (Glewwe foam test) was 9 and the “Surfactant Foam Profile 1 min” value (Glewwe foam test) was 8.
